Experimental data taken from US4464385A, “Treatment of diabetic complications with hydantoins” (Alcon Laboratories, Inc., priority 1982, dated 1984).

Key:
[1] = molecular target: T1, aldose reductase enzyme obtained from human placenta (Homo sapiens, UniProt P15121); assay: Inhibition of partially purified aldose reductase from human placenta; assay type: biochemical; settings: for IC50: HUMAN, human placenta enzyme, read-out: IC50 (concentration of drug that inhibits 50% of the enzyme activity)
T1 construct: partially purified aldose reductase enzyme obtained from rat lens or human placenta; from tissue; host or cells: human placenta
Protocol: The spiro-hydantoin compounds of Preparations C and D were tested for their ability to reduce or inhibit aldose reductase enzyme activity via the procedures of P. F. Kador et. al. as described in Biophysical Chemistry, 8 (1978) 81-85 and P. F. Kador et. al. as described in Documenta Ophthamologicia, 18 (1979) 117. In every case the […] employed was partially purified aldose reductase enzyme obtained from rat lens or human placenta.

aldose reductase = assay: Aldose reductase inhibition / potency (general statement)

Row | IC50 [1] [µM] | in vitro inhibition of human placental aldose reductase ([1]; in vitro) | Molecule | activity relative to the methylthio derivative (aldose reductase) | potency relative to the resolved 6-fluoro compound (aldose reductase)
1 | 12 | inhibit human placental aldose reductase | C[S+]([O-])c1ccc2c(c1)C1(CCO2)NC(=O)NC1=O (centres unmarked) [D, spiro-(6-methylsulfinylchroman-4,4'-imidazolidine)-2',5'-dione] | lacked the activity of the methylthio derivative | –
2 | 0.66 | – | dl-spiro-(6-methylthio-chroman-4,4'-imidazolidine)-2',5'-dione | – | potency similar to the resolved 6-fluoro compound
